# From patent US9914760B2, “Methods of identifying, isolating and using odorant and aroma receptors” (Firmenich SA, priority 2013, dated 2018)
# How the values were obtained:
# Assay in all cases: cell-based calcium-flux assay, HEK293T with Gα15
# OR11G2 = target: T1, OR11G2 (Homo sapiens, UniProt Q8NGC1); conditions: increasing concentrations; FIG. 6C
# T1 construct: expressed in transfected cells
# T1 sequence (Q8NGC1 35-345): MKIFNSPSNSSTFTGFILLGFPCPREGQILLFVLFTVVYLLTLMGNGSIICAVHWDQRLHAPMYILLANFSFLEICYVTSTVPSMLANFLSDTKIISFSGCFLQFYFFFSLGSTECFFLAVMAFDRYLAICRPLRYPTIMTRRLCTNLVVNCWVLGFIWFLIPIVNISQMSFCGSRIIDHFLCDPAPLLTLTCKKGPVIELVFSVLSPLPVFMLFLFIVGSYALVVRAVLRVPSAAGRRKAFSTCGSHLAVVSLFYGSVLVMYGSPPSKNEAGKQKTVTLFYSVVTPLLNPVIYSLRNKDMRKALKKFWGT
# Source text: (§1) The activity of candidate human indole and skatole malodors receptors OR52N2 (SEQ ID NO: 11 and SEQ ID NO: 12), OR11G2 (SEQ ID NO: 13 and SEQ ID NO: 14, OR5AC2 (SEQ ID NO: 75 and SEQ ID NO: 76), OR4C15 (SEQ ID NO: 79 and SEQ ID NO: 80), OR8S1 (SEQ ID NO: 83 and SEQ ID NO: 84), OR11H6 (SEQ ID NO: 15 and SEQ ID NO: 16) and OR11H4 (SEQ ID NO: 49 and SEQ ID NO: 50) and candidate mouse indole and skatole malodors receptors Olfr665 (SEQ ID NO: 9 and SEQ ID NO 10) and Olfr740 (SEQ ID NO: 1 and SEQ ID NO 2) were confirmed in cell-based calcium-flux assays (FIGS. 6A to 6J). Cells stably co-expressing Rho-tagged human OR52N2 (FIG. 6A, B) or OR11G2 (FIG. 6C) and Gα15 (SEQ ID NO: 25) were exposed to increasing concentrations of skatole or indole. FIG. 6B is a repeat experiment showing similar activity of OR52N2 with indole and skatole. Odorant-induced OR52N2 or OR11G2 activity was detected by measuring the maximum Calcium 5 dye (Molecular Devices) fluorescence change following odorant exposure. Activity is defined as the baseline corrected Relative Fluorescent Units (RFU) ratios normalized to the highest RFU in the experiment in FIG. 6A. […] A cell line lacking a receptor, for example hOR52N2, was used as a control for non-specific activity at high concentrations (‘Indole control’ and ‘Skatole control’). The human receptor OR52N2 (SEQ ID NO: 11 and SEQ ID NO: 12) was identified because of its sequence similarity to mouse Olfr665 (SEQ ID NO: 10), an indole/skatole receptor isolated from olfactory neurons responding to both indole and skatole. The human receptor OR11G2 (SEQ ID NO: 13 and SEQ ID NO: 14) was identified because of its sequence similarity to mouse Olfr740 (SEQ ID NO: 2), an indole/skatole receptor isolated from olfactory neurons responding to both indole and skatole. The receptors were modified with the Rho sequence and stably expressed in HEK 293T cells. Further examples show indole and skatole dose-response curves for human receptors OR5AC2, OR4C15, OR8S1, OR11H6, OR11H4 and mouse receptors Olfr665 and Olfr740 (FIG. 6D-J). The human receptor OR5AC2 (SEQ ID NO: 75 and SEQ ID NO: 76) was identified because of its sequence similarity to mouse Olfr207 (SEQ ID NO: 78), a receptor isolated from olfactory neurons responding to both indole and skatole. The human receptor OR4C15 (SEQ ID NO: 79 and SEQ ID NO: 80) was identified because of its sequence similarity to mouse Olfr211 (SEQ ID NO: 82), a receptor isolated from olfactory neurons responding to both indole and skatole. The human receptor OR8S1 (SEQ ID NO: 83 and SEQ ID NO: 84) was identified because of its sequence similarity to mouse Olfr257 (SEQ ID NO: 86), a receptor isolated from olfactory neurons responding to both indole and skatole. The human receptor OR11H6 (SEQ ID NO: 15 and SEQ ID NO: 16) was identified because of its sequence similarity to mouse Olfr745 (SEQ ID NO: 8), a receptor isolated from olfactory neurons responding to both indole and skatole. The human receptor OR11H4 (SEQ ID NO: 49 and SEQ ID NO: 50) was identified because of its sequence similarity to mouse Olfr746 (SEQ ID NO: 38), a receptor isolated from olfactory neurons responding to both indole and skatole. The mouse receptor Olfr665 (SEQ ID NO: 9 and SEQ ID NO: 10) was identified directly from NGS data from isolated olfactory neurons responding to both indole and skatole. The mouse receptor Olfr740 (SEQ ID NO: 1 and SEQ ID NO: 2) was identified directly from NGS data from isolated olfactory neurons responding to both indole and skatole. Co-expression of the human G alpha subunit Gα15 activates the Gq transduction pathway that leads to an internal Ca2+ increase upon binding to the appropriate ligand.
# OR11H6 = target: T2, OR11H6 (Homo sapiens, UniProt Q8NGC7); conditions: dose-response curves FIG. 6D-J
# T2 construct: expressed in transfected cells
# T2 sequence (Q8NGC7 1-330): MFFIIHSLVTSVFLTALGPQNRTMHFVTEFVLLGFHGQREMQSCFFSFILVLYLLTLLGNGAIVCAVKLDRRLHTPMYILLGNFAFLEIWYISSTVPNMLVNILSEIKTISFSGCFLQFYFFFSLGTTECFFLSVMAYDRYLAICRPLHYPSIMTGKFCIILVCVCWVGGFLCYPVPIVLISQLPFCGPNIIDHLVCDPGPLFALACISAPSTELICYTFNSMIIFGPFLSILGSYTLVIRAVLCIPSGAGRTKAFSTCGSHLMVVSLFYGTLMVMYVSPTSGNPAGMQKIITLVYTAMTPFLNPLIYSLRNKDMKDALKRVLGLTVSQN
# Source text: as §1
# OR4C15 = target: T3, OR4C15 (Homo sapiens, UniProt Q8NGM1); conditions: dose-response curves FIG. 6D-J
# T3 construct: expressed in transfected cells
# T3 sequence (Q8NGM1 with tags, fused parts or gaps): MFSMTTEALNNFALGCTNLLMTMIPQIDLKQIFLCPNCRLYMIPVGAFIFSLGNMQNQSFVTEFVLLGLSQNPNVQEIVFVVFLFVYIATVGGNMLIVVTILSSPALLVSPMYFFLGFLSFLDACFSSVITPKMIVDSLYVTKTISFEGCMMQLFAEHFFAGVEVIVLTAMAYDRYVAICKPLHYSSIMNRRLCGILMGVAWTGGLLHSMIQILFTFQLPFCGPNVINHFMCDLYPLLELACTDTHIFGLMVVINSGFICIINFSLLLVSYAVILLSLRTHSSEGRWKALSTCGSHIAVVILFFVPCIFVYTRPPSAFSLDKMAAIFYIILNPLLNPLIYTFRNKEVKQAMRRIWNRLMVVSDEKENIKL
# Source text: as §1
# OR5AC2 = target: T4, OR5AC2 (Homo sapiens, UniProt Q9NZP5); conditions: dose-response curves FIG. 6D-J
# T4 construct: expressed in transfected cells
# T4 sequence (Q9NZP5 1-309): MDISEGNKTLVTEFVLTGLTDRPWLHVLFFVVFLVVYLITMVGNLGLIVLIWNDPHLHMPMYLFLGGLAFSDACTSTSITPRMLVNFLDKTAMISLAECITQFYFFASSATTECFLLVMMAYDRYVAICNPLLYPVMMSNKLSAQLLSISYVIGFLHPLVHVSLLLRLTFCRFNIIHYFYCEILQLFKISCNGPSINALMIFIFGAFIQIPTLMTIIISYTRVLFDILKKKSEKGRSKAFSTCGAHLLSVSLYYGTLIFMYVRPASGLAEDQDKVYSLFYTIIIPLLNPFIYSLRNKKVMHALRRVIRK
# Source text: as §1
Compound,receptor activity (Calcium 5 dye fluorescence change) (OR11G2),receptor response in vitro (OR11H6),receptor response in vitro (OR4C15),receptor response in vitro (OR5AC2)
c1ccc2[nH]ccc2c1 [indole],dose-dependent increase of receptor activity,responded,responded,responded
"Cc1c[nH]c2ccccc12 [skatole, 3-methyl indole]",dose-dependent increase of receptor activity,responded,responded,responded
